Here are results for 11 compounds from ChEMBL document CHEMBL1201862, “PubChem BioAssay data set” (2004).

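Values below derive from 48-hour exposures of cells grown in 96-well plates, with endpoints linearly interpolated between the two concentrations bracketing the appropriate inhibition level. The concentration for 50% growth inhibition is given as GI50.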 The source made the active and inactive calls. Cut-off read from the data, not from the text of the source: active = GI50 up to about 1.1 µM and inactive = higher.

Some test systems named below: HCT-15; RXF 393; SNB-75; SNB-19; LOX IMVI; CAKI-1; NCI-H460; SF-539; M14; KM12; TK-10; UO-31; PC-3; MDA-MB-231; OVCAR-8; T47D; SK-MEL-28; SK-MEL-2; SN12C; SR.
Holding throughout (experiment): NCI anticancer screen, dose series, 48 h

`CCOC(=O)C(C(=O)OCC)C1C=CCC2c3ccccc3COCC21` (stereo not drawn): the GI50 is 40 µM in the test on HCT-15; > 100 µM (inactive) in the test on RXF 393; 96.6 µM (inactive) in the test on SNB-75; > 100 µM (inactive) with SNB-19; 44.2 µM (inactive) with LOX IMVI; 26.5 µM (inactive) in the test with CAKI-1. Besides, the GI50 was 62.1 µM (inactive) in the test on NCI-H460; > 100 µM (inactive) with SF-539; 49.9 µM (inactive) in the test on M14; 33.6 µM (inactive) in the test with KM12; 98.2 µM (inactive) with TK-10; 43.9 µM (inactive) in the test with UO-31. In addition, the GI50 with PC-3 was 42.6 µM (inactive); with MDA-MB-231, > 100 µM (inactive); in the test with OVCAR-8, 44.2 µM (inactive); in the test on T47D, 30.2 µM (inactive); in the test with SK-MEL-28, 55.7 µM (inactive); with SK-MEL-2 it was 41.4 µM (inactive). In the test on SN12C, the GI50 was 79.6 µM (inactive).

With `COc1cc(C2SCC(=O)N2c2ccc(-n3c(-c4ccccc4)nc4ccccc4c3=O)cc2)ccc1O` (stereo not drawn), the GI50 in the test with HCT-15 is 64.1 µM; with SNB-19, > 100 µM (inactive); in the test on LOX IMVI, 54.6 µM (inactive); in the test with CAKI-1, > 100 µM (inactive); with NCI-H460 it was 69.5 µM (inactive); in the test with SF-539 it was > 100 µM (inactive). The GI50 with M14 was > 100 µM (inactive); in the test on KM12 it was 34.4 µM (inactive); in the test on TK-10, > 100 µM (inactive); in the test with UO-31, 11.8 µM (inactive); with PC-3 it was > 100 µM (inactive); in the test on MDA-MB-231, 97.9 µM (inactive). For the same compound, the GI50 in the test on OVCAR-8 is > 100 µM (inactive); in the test on T47D, 30 µM (inactive); in the test with SR, 26 µM (inactive); with SK-MEL-28, > 100 µM (inactive); with SK-MEL-2 it was > 100 µM (inactive).

Regarding `Nc1ccc2[nH]cc(CCC(=O)O)c2c1`, the GI50 in the test on HCT-15 is over 100 µM; with RXF 393, > 100 µM (inactive); in the test with SNB-75 it was 46.1 µM (inactive); in the test with SNB-19 it was > 100 µM (inactive); in the test with LOX IMVI, > 100 µM (inactive); in the test with CAKI-1, > 100 µM (inactive). Moreover, the GI50 in the test with SF-539, with M14, in the test with KM12, with TK-10, in the test with UO-31 and in the test with PC-3 was > 100 µM (inactive) each time. Moreover, the GI50 in the test on MDA-MB-231, in the test with OVCAR-8, in the test on T47D, with SK-MEL-28, in the test with SK-MEL-2 and in the test with SN12C was > 100 µM (inactive) each time.

Consider `S=C(S)NCNC(=S)S`, for which the GI50 in the test on HCT-15 was over 100 µM; in the test with RXF 393, > 100 µM (inactive); in the test on SNB-75 it was > 100 µM (inactive); in the test on SNB-19, > 100 µM (inactive); with LOX IMVI, > 100 µM (inactive); with CAKI-1, > 100 µM (inactive). For the same compound, the GI50 in the test on NCI-H460, with SF-539, in the test on M14, in the test on KM12, in the test on TK-10 and in the test on UO-31 was > 100 µM (inactive) each time. The GI50 with PC-3, in the test on MDA-MB-231, in the test with OVCAR-8, in the test on T47D, in the test with SK-MEL-28 and in the test on SN12C was > 100 µM (inactive) each time.

With `O=C(OCc1ccccc1CN1CCOCC1)c1cccc(Br)c1`, the GI50 with HCT-15 was 36.4 µM; in the test with RXF 393, 78.7 µM (inactive); in the test with SNB-75 it was 31.2 µM (inactive); in the test with SNB-19 it was 93.1 µM (inactive); in the test with LOX IMVI it was 31.3 µM (inactive); with CAKI-1, 40.2 µM (inactive). Moreover, the GI50 in the test on NCI-H460 was 83.8 µM (inactive); with SF-539, 43.6 µM (inactive); with M14, 36.9 µM (inactive); with UO-31, 62.2 µM (inactive); with PC-3, 37.2 µM (inactive); with MDA-MB-231, 33.7 µM (inactive). Also, the GI50 in the test on OVCAR-8 was 44.5 µM (inactive); in the test with T47D it was 18.7 µM (inactive); in the test with SK-MEL-28, 33.1 µM (inactive); with SK-MEL-2, 22.3 µM (inactive); with SN12C it was 39.3 µM (inactive).

Regarding `Cc1cc(O)c(C(C)C)cc1NC(=O)Nc1cccc2ccccc12`, the GI50 with HCT-15 is 20.7 µM; in the test with RXF 393, 14.2 µM (inactive); with SNB-19, 11.8 µM (inactive); in the test on LOX IMVI, 19.8 µM (inactive); in the test on CAKI-1, 16.2 µM (inactive); with NCI-H460, 16.5 µM (inactive). For the same compound, the GI50 in the test with M14 was 18 µM (inactive); in the test with KM12, 15.7 µM (inactive); with TK-10, 18.2 µM (inactive); with UO-31, 17.1 µM (inactive); with PC-3, 13.7 µM (inactive); in the test on MDA-MB-231 it was 17.7 µM (inactive). The GI50 in the test on OVCAR-8 was 30.8 µM (inactive); with T47D, 13.2 µM (inactive); with SR it was 26.6 µM (inactive); in the test with SK-MEL-28, 23.2 µM (inactive); with SK-MEL-2, 15.3 µM (inactive); in the test on SN12C, 16.5 µM (inactive).

On to `CC(=O)c1ccc(Nc2nc3ccccc3c3occc23)cc1`, for which the GI50 in the test on HCT-15 was 5.08 µM; in the test on SNB-19, 34.8 µM (inactive); in the test with LOX IMVI, 9.57 µM (inactive); in the test on CAKI-1, 3.26 µM (inactive); with NCI-H460, 4.71 µM (inactive); in the test on SF-539 it was 17.1 µM (inactive). Also, the GI50 with M14 was 14.1 µM (inactive); in the test with KM12, 7.14 µM (inactive); in the test on TK-10, 7.1 µM (inactive); in the test on UO-31 it was 20.4 µM (inactive); in the test on PC-3, 22.4 µM (inactive); with MDA-MB-231, 13.1 µM (inactive). In addition, the GI50 in the test on OVCAR-8 is 32.5 µM (inactive); in the test on T47D, 5.94 µM (inactive); in the test on SR it was 2.92 µM (inactive); in the test on SK-MEL-28, 2.34 µM (inactive); in the test with SK-MEL-2, 14.6 µM (inactive); in the test with SN12C, 31.9 µM (inactive).

`CN1CCN(CCn2c3c4ccccc4ccc3c3oc(=O)c4ccccc4c32)CC1`: the GI50 was 2.72 µM in the test with HCT-15; 4.37 µM (inactive) in the test with SNB-75; 4.51 µM (inactive) in the test on SNB-19; 4.97 µM (inactive) in the test on CAKI-1; 1.99 µM (inactive) with NCI-H460; 1.65 µM (inactive) with SF-539. Besides, the GI50 with M14 is 1.68 µM (inactive); with KM12, 2.42 µM (inactive); in the test on TK-10, 10.5 µM (inactive); in the test with UO-31, 2.19 µM (inactive); in the test with PC-3, 2.03 µM (inactive); in the test with MDA-MB-231 it was 1.8 µM (inactive). The GI50 with OVCAR-8 was 1.52 µM (inactive); with T47D it was > 10 µM (inactive); in the test on SR it was 1.5 µM (inactive); in the test on SK-MEL-28, 4.94 µM (inactive); in the test on SK-MEL-2 it was 13.5 µM (inactive); with SN12C, 1.51 µM (inactive).

`O=C(O)CC(C(=O)O)c1ccccc1[N+](=O)[O-]` (stereo not drawn): the GI50 in the test on HCT-15 was over 100 µM; in the test on RXF 393, > 100 µM (inactive); with SNB-75, > 100 µM (inactive); in the test on SNB-19 it was > 100 µM (inactive); in the test on LOX IMVI, > 100 µM (inactive); with CAKI-1 it was > 100 µM (inactive). Further, the GI50 in the test on NCI-H460 is > 100 µM (inactive); in the test with M14, > 100 µM (inactive); with KM12 it was > 100 µM (inactive); in the test with TK-10, > 100 µM (inactive); in the test with UO-31 it was 2.62 µM (inactive); with PC-3, > 100 µM (inactive). Moreover, the GI50 with MDA-MB-231, with OVCAR-8, with T47D, in the test with SK-MEL-28, in the test on SK-MEL-2 and with SN12C was > 100 µM (inactive) in each case.

In the case of `CCn1c2ccccc2c2cc(Nc3cc(C)[nH]c(=O)n3)ccc21`, the GI50 was over 100 µM with HCT-15; > 100 µM (inactive) in the test on RXF 393; > 100 µM (inactive) in the test with SNB-19; > 100 µM (inactive) in the test on CAKI-1; > 100 µM (inactive) with NCI-H460; > 100 µM (inactive) in the test on SF-539. In addition, the GI50 in the test with M14 is > 100 µM (inactive); in the test with KM12, 5.7 µM (inactive); in the test on TK-10 it was > 100 µM (inactive); with UO-31, > 100 µM (inactive); with PC-3 it was > 100 µM (inactive); in the test with MDA-MB-231, > 100 µM (inactive). Besides, the GI50 was > 100 µM (inactive) in the test on OVCAR-8; > 100 µM (inactive) in the test on T47D; 0.0199 µM (active) in the test with SR; > 100 µM (inactive) in the test on SK-MEL-28; > 100 µM (inactive) in the test on SK-MEL-2; > 100 µM (inactive) in the test with SN12C.

For the compound `c1ccc2c(c1)CCN1CCc3ccccc3C1C2` (stereo not drawn), the GI50 in the test with HCT-15 was 40.2 µM; with SNB-75 it was 36.4 µM (inactive); in the test with SNB-19 it was 82.8 µM (inactive); with LOX IMVI, 35.1 µM (inactive); in the test with CAKI-1 it was 47.1 µM (inactive); in the test with NCI-H460 it was 44.6 µM (inactive). Moreover, the GI50 in the test on SF-539 was 20.5 µM (inactive); in the test on M14 it was 23.1 µM (inactive); with KM12 it was 52.1 µM (inactive); in the test with TK-10, 59.6 µM (inactive); in the test on UO-31, 18.1 µM (inactive); in the test with PC-3, 43.7 µM (inactive). In addition, the GI50 is 42.3 µM (inactive) in the test on MDA-MB-231; 81.1 µM (inactive) in the test with OVCAR-8; > 100 µM (inactive) with T47D; 47.8 µM (inactive) with SR; 59.6 µM (inactive) in the test with SK-MEL-28; 51.2 µM (inactive) in the test on SK-MEL-2. Besides, in the test on SN12C, the GI50 is 43.4 µM (inactive).
